Reference: article PMC5622171 (Nature Communications, 2017)
Entries after “also recorded” stand apart in the source; their conditions may differ.

Tests used:
mPXR = target: T1, mPXR (Mus musculus, UniProt O54915); assay: mPXR transactivation assay; type: cell-based; conditions: only at concentrations higher than 5 µM
T1 construct: host or cells: Hepa 1-6
Procedure: For the mPXR transactivation assay, Hepa 1-6 cells were co-transfected with pCMV6-mPXR (Cat. No. MR226044, OriGene Technologies, Rockville, MD), pGL3-CYP3A4-luc and pRL-TK by using Lipofectamine 3000. […] The relative luciferase activity was determined by normalizing the firefly luciferase signal to the Renilla luciferase signal. The final DMSO concentration was 0.3% in all assay wells. In the agonistic assays, 10 μM PCN and DMSO were used as the positive (100% activation) and negative control (0% activation), respectively. […] Compound activity was normalized to the controls.

[1] = system: hPXR transcriptional target genes; assay: DNA microarray analysis in primary human hepatocytes; type: cell-based; conditions: 2.5 μM SPA70, 48 h
Source text: In each case, total RNA was extracted using a Qiagen RNeasy Mini Kit and amplified and labeled by using an One-Color Low Input Quick Amp Labeling Kit (Agilent, Santa Clara, CA, catalog no. 5190-2305), after which it was hybridized to the SurePrint G3 Human GE 8 × 60 K microarray (Agilent-028004), which contains 42,545 unique probes targeting 27,958 Entrez genes. Microarrays were scanned with an Agilent array scanner (G2565CA) at 3-μm resolution. Microarray data were extracted by Agilent Feature Extraction software (v10.5.1.1). Quantile normalization of log-transformed, background-subtracted signal intensity was performed for all samples. This was followed by comparisons between sets of replicates from different experimental groups. Student’s t-test was used to determine the statistical significance of the difference between the paired samples from three replicates of each experiment. […] The data processing and PCA analysis were performed using Partek software (St. Louis, MO)[52]. The GEO accession number for the microarray analysis is GSE90122.

[2] = system: LS180 cells with stable exogenous expression of hPXR; assay: CellTiter-Glo cytotoxicity assay; conditions: 10 µM SPA70
hPXR = target: T2, hPXR (Homo sapiens, UniProt O75469); assay: hPXR transactivation assay, HepG2 stable cell line, agonistic mode
T2 sequence (O75469 1-434): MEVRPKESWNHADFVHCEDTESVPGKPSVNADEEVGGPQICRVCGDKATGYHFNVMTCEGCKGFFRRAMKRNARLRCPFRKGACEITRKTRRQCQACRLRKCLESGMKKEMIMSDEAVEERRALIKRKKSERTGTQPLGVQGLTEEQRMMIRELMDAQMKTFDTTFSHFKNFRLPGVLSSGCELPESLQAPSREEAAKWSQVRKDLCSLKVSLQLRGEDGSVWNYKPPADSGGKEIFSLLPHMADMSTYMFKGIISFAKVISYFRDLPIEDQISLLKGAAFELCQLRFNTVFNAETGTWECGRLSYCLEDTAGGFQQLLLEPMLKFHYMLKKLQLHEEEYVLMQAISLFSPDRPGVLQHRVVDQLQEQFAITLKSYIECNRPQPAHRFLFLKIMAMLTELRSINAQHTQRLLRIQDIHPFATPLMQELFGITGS

MDR1 in LS180 cells = assay: MDR1 protein levels (western blot); type: cell-based, human; conditions: 10 μM SPA70, 1.6 μM RIF, 72 h
Procedure: (§1) Cells were rinsed once with cold PBS then lysed in RIPA lysis buffer (Thermo Fisher Scientific) containing protease inhibitor (Roche). Mouse liver samples were homogenized in 500 μl of cold RIPA lysis buffer in a Bullet Blender Blue homogenizer (Next Advance, Averill Park, NY). Then, 25 μg of total protein lysates were loaded onto NuPAGE 4%–12% Bis-Tris gels (Invitrogen) with NuPAGE MES SDS running buffer (Invitrogen). The proteins were transferred from the gel to a nitrocellulose membrane by using the iBlot gel-transfer system (Invitrogen). The membrane was then blocked for 1 h with Odyssey Blocking Buffer (LI-COR Biosciences, Lincoln, NE) and probed with mouse monoclonal antibodies against CYP3A4 (K03; stock concentration: 2.5 mg ml^−1, diluted 1:5000)[51], MDR1 (D-11; Cat. No. sc-55510, Santa Cruz Biotechnology, Santa Cruz, CA; stock concentration: 0.2 mg ml^−1, diluted 1:1500), hPXR (H-11; Cat. No. sc-48340, Santa Cruz Biotechnology; stock concentration: 0.2 mg ml^−1, diluted 1:400), mouse Cyp3a (Cat. No. MAB10041, Millipore, Temecula, CA; Lot No. 1957980, diluted 1:1000), or β-actin (Cat. No. A5441, Sigma; Lot No. 043M4840V, diluted 1:5000). […] The relative intensity of each protein band was then determined by normalizing the intensity of each protein band to that of actin. […]

MDR1 in LS174T cells = assay: MDR1 protein levels (western blot); type: cell-based, human; conditions: 10 μM SPA70, 1.6 μM RIF, 72 h
Procedure: as §1

hPXR–NCoR = target: T3, hPXR–NCoR (Homo sapiens, UniProt O75469); type: biochemical
T3 construct: 5 nM GST-hPXR-LBD; purchased Thermo Fisher Scientific
T3 sequence (O75376 2256-2278 partner limits assumed, one chain of several): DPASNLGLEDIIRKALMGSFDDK

T1 sequence (O54915 whole entry): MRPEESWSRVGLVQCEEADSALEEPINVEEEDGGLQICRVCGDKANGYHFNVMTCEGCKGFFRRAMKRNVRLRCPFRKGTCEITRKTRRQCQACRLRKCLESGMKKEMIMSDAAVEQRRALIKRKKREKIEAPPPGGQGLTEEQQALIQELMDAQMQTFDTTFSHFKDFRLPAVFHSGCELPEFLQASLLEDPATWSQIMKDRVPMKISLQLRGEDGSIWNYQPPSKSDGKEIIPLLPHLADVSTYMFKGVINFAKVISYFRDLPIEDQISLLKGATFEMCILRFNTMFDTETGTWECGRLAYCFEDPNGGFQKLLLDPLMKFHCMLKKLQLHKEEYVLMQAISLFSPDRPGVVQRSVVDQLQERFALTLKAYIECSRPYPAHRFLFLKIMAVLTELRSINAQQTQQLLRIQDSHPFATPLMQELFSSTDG

`COc1ccc(OC)c(-n2nnc(S(=O)(=O)c3ccc(C(C)(C)C)cc3)c2C)c1` [SPA70] was tested, and the mPXR agonism (mPXR) was “very weak mPXR agonist; also recorded: weak agonist of mPXR”, the “Effect on induction of hPXR transcriptional target genes by rifampicin, SR12813 and T090137” value [1] was “blocked their induction” and the “Effect on paclitaxel sensitivity of LS180 cells with exogenous hPXR” value [2] was “re-sensitized the cells to paclitaxel”. The “Effect on basal activity of hPXR” value (hPXR) was “very weakly inhibited the basal activity”, the “Effect on rifampicin induction of MDR1” value (MDR1 in LS180 cells) was “able to block rifampicin induction of MDR1” and the “Effect on rifampicin induction of MDR1” value (MDR1 in LS174T cells) was “able to block rifampicin induction of MDR1”. For the same compound, the “Effect on hPXR–NCoR interactions” value (hPXR–NCoR) was “enhanced the hPXR–NCoR interactions”.
